For 23 compounds, IC50 results are on record in patent publication US20220073525A1, “COMPOSITIONS FOR INHIBITING UBIQUITIN SPECIFIC PROTEASE 1” (FORMA Therapeutics, Inc., priority 2019, published 2022).

USP1, sequence (O94782 whole entry): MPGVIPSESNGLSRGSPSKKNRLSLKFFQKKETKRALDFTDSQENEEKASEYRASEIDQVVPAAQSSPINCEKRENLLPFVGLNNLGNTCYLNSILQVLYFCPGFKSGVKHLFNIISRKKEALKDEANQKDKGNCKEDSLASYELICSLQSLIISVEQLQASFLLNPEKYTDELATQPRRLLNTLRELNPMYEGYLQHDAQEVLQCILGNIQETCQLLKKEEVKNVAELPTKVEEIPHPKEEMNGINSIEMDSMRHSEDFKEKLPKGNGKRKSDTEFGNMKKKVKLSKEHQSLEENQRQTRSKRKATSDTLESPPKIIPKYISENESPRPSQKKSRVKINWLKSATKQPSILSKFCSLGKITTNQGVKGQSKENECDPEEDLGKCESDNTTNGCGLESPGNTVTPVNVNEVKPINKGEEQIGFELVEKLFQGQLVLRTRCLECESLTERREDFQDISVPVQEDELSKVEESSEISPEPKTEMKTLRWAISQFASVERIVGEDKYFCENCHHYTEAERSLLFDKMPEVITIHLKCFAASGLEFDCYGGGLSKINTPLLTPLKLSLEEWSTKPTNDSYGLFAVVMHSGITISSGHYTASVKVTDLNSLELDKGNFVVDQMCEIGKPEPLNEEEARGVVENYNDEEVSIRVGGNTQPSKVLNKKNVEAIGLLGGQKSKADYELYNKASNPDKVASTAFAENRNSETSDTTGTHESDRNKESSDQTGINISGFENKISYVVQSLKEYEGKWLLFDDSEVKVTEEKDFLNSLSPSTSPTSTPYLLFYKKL
USP1, sequence (Q8TAF3 whole entry partner): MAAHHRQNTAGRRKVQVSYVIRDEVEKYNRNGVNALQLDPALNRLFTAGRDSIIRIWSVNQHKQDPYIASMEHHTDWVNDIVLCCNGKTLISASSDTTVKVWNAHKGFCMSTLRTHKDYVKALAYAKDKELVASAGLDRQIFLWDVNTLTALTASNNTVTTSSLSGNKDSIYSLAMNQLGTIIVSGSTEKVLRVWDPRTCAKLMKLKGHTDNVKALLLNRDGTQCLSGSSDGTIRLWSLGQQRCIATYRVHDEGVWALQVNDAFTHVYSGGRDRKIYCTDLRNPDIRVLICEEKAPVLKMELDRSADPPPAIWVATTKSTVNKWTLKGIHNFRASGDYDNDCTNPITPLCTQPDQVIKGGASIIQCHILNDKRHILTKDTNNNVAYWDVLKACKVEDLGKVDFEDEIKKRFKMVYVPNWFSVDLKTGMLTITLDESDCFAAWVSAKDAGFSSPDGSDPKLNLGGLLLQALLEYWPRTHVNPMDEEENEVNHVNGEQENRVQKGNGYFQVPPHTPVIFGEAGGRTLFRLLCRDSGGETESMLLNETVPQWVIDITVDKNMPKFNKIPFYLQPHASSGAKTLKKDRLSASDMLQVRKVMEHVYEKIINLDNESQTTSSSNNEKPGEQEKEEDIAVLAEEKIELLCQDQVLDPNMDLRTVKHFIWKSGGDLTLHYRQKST

The target of the assay is USP1 (Homo sapiens, UniProt O94782). The assay can be described thus: Biochemical Assay for USP1 Inhibition (Ub-Rho 110 fluorescence). As to conditions: Table 5; 30 min preincubation, Enzyme 0.025 nM, Substrate Ub-Rho 110 25 nM; read-out: IC50 (μm). As for the experimental part:
The assay was performed in a final volume of 6 μL in assay buffer containing 20 mM Tris-HCl pH 8.0, (1 M Tris-HCl, pH 8.0 solution; Corning 46-031-CM), 1 mM GSH (L-glutathione reduced, Sigma-Aldrich, G4251-100G), 0.03% BGG (0.22 μM filtered, Sigma, G7516-25G), and 0.01% Triton X-100 (Sigma, T9284-10L). Nanoliter quantities of 10-point, 3-fold serial dilution in DMSO were pre-dispensed into 1536 assay plates (Corning, #3724BC) for a final test concentration of 25 μM to 1.3 nM, top to lowest dose, respectively. Concentration and incubation times were optimized for the maximal signal-to-background while maintaining initial velocity conditions at a fixed substrate concentration (<<Km). 3 μL of 2× Enzyme was added to assay plates (pre-stamped with compound), preincubated for 30 min, and then treated with 3 μL of 2× Substrate (Ub-Rho 110, UbiQ-126). Final concentrations of Enzyme and Substrate are 0.025 nM and 25 nM, respectively. Plates were read using a kinetic protocol continuously for 11 min on the Envision (Perkin Elmer) or PheraSTAR (BMG), excitation at 485 nm and emission at 535 nm or excitation at 520 nm and emission at 590 nm. For all assay formats, data were reported as percent inhibition compared with control wells based on the following equation: % inh=100*([…]), where FLU=measured Fluorescence, AveLow=average Fluorescence of no enzyme control (n=32), and AveHigh=average Fluorescence of DMSO control (n=32). IC50 values were determined by curve fitting of the standard 4 parameter logistic fitting algorithm included in the Activity Base software package: TDBS XE Designer Model205. Data is fitted using the Levenburg Marquardt algorithm.
In Table 5, absolute stereochemistry has not been determined for some Compounds. Accordingly, assignment ofany Compounds as the “R” or “S” stereoisomer is arbitrary, unless otherwise noted. In some cases, Compounds are labeled with “1st eluting isomer”, “2nd eluting isomer”, etc. based on the purification method used to separate the stereoisomers.
As for `Cc1nc(-c2cccnc2C(C)C)c2n1CCN(c1ccc(C3COC(=O)N3)cc1)C2` (centres unmarked) [Compound 37, 4-(4-{3-methyl-1-[2-(propan-2-yl)pyridin-3-yl]-5H,6H,7H,8H-imidazo[1,5-a]pyrazin-7-yl}phenyl)-1,3-oxazolidin-2-one], the IC50 was greater than 25 µM. For the compound `Cc1nc(-c2cccnc2C(C)C)c2n1CCN(c1ccc(N3CCCCC3=O)cc1)C2` [Compound 38, 1-(4-{3-methyl-1-[2-(propan-2-yl)pyridin-3-yl]-5H,6H,7H,8H-imidazo[1,5-a]pyrazin-7-yl}phenyl)piperidin-2-one], the IC50 is greater than 25 µM. In the case of `Cc1nnnn1-c1ccc(N2CCn3c(C)nc(-c4cccnc4C(C)C)c3C2)cc1` [Compound 39, 3-{3-methyl-7-[4-(5-methyl-1H-1,2,3,4-tetrazol-1-yl)phenyl]-5H,6H,7H,8H-imidazo[1,5-a]pyrazin-1-yl}-2-(propan-2-yl)pyridine] it was greater than 25 µM. As for `Cc1nc(-c2cccnc2C(C)C)c2n1CCN(c1ccc(-c3nnn(C)n3)cc1)C2` [Compound 40, 3-{3-methyl-7-[4-(2-methyl-2H-1,2,3,4-tetrazol-5-yl)phenyl]-5H,6H,7H,8H-imidazo[1,5-a]pyrazin-1-yl}-2-(propan-2-yl)pyridine], the IC50 lay in the range of 1 to 10 µM. In the case of `Cc1nc(-c2cccnc2C(C)C)c2n1CCN(c1ccc(-c3ncccn3)cc1)C2` [Compound 41, 2-(4-{3-methyl-1-[2-(propan-2-yl)pyridin-3-yl]-5H,6H,7H,8H-imidazo[1,5-a]pyrazin-7-yl}phenyl)pyrimidine] it was 1 to 10 µM; in that of `Cc1nc(-c2cccnc2C(C)C)c2n1CCN(c1ccc(-n3cnnc3)cc1)C2` [Compound 42, 3-{3-methyl-7-[4-(4H-1,2,4-triazol-4-yl)phenyl]-5H,6H,7H,8H-imidazo[1,5-a]pyrazin-1-yl}-2-(propan-2-yl)pyridine], greater than 25 µM. In the case of `Cc1nc(-c2cccnc2C(C)C)c2n1CCN(c1ccc(N3CCCC3=O)cc1)C2` [Compound 43, 1-(4-{3-methyl-1-[2-(propan-2-yl)pyridin-3-yl]-5H,6H,7H,8H-imidazo[1,5-a]pyrazin-7-yl}phenyl)pyrrolidin-2-one] it was 1 to 10 µM; in that of `Cc1nnc(-c2ccc(N3CCn4c(C)nc(-c5cccnc5C(C)C)c4C3)cc2)o1` [Compound 44, 3-{3-methyl-7-[4-(5-methyl-1,3,4-oxadiazol-2-yl)phenyl]-5H,6H,7H,8H-imidazo[1,5-a]pyrazin-1-yl}-2-(propan-2-yl)pyridine], 1 to 10 µM. As for `Cc1nc(-c2ccc(N3CCn4c(C)nc(-c5cccnc5C(C)C)c4C3)cc2)cn1C` [Compound 45, 3-{7-[4-(1,2-dimethyl-1H-imidazol-4-yl)phenyl]-3-methyl-5H,6H,7H,8H-imidazo[1,5-a]pyrazin-1-yl}-2-(propan-2-yl)pyridine], the half-inhibitory concentration (IC50) was no more than 1 µM.

As to `Cc1nc(-c2cccnc2C(C)C)c2n1CCN(c1ccc(C3(O)COC3)cc1)C2` [Compound 46, 3-(4-{3-methyl-1-[2-(propan-2-yl)pyridin-3-yl]-5H,6H,7H,8H-imidazo[1,5-a]pyrazin-7-yl}phenyl)oxetan-3-ol], the concentration for half-maximal inhibition (IC50) was greater than 25 µM. With `Cc1nc(-c2cccnc2C(C)C)c2n1CCN(c1ccc(-n3ccnc3)cc1)C2` [Compound 47, 3-{7-[4-(1H-imidazol-1-yl)phenyl]-3-methyl-5H,6H,7H,8H-imidazo[1,5-a]pyrazin-1-yl}-2-(propan-2-yl)pyridine] the figure was greater than 25 µM.

Take `CNC(=O)c1ccc(N2CCn3c(C)nc(-c4cccnc4C(C)C)c3C2)c(F)c1` [Compound 48, 3-fluoro-N-methyl-4-{3-methyl-1-[2-(propan-2-yl)pyridin-3-yl]-5H,6H,7H,8H-imidazo[1,5-a]pyrazin-7-yl}benzamide]: the IC50 is greater than 25 µM. `Cc1nc(-c2cccnc2C(C)C)c2n1CCN(c1ccc(C(=O)N(C)C)cc1F)C2` [Compound 49, 3-fluoro-N,N-dimethyl-4-{3-methyl-1-[2-(propan-2-yl)pyridin-3-yl]-5H,6H,7H,8H-imidazo[1,5-a]pyrazin-7-yl}benzamide]: the half-maximal inhibitory concentration (IC50) was in the range of 10 to 25 µM. With `Cc1nc(-c2cccnc2C(C)C)c2n1CCN(c1ccc(C(=O)N(C)C)cc1)C2` [Compound 50, N,N-dimethyl-4-{3-methyl-1-[2-(propan-2-yl)pyridin-3-yl]-5H,6H,7H,8H-imidazo[1,5-a]pyrazin-7-yl}benzamide] the figure was 10 to 25 µM. With `Cc1nc(-c2cccnc2C(C)C)c2n1CCN(c1ccc(C(=O)NCc3ccc(-n4ccc(C(F)(F)F)n4)cc3)cc1)C2` [Compound 53, 4-{3-methyl-1-[2-(propan-2-yl)pyridin-3-yl]-5H,6H,7H,8H-imidazo[1,5-a]pyrazin-7-yl}-N-({4-[3-(trifluoromethyl)-1H-pyrazol-1-yl]phenyl}methyl)benzamide] the figure was 1 to 10 µM; with `Cc1nc(-c2cccnc2C(C)C)c2n1CCN(c1ccc(C(=O)N3CCC[C@H]3C)cc1)C2` [Compound 54-1, 3-(3-methyl-7-{4-[(2R)-2-methylpyrrolidine-1-carbonyl]phenyl}-5H,6H,7H,8H-imidazo[1,5-a]pyrazin-1-yl)-2-(propan-2-yl)pyridine], 10 to 25 µM.

`Cc1nc(-c2cccnc2C(C)C)c2n1CCN(c1ccc(C(=O)N3CCC[C@@H]3C)cc1)C2` [Compound 55, 3-(3-methyl-7-{4-[(2S)-2-methylpyrrolidine-1-carbonyl]phenyl}-5H,6H,7H,8H-imidazo[1,5-a]pyrazin-1-yl)-2-(propan-2-yl)pyridine]: the concentration for half-maximal inhibition (IC50) lay within 1 to 10 µM. In the case of `Cc1nc(-c2cccnc2C(C)C)c2n1C(C)CN(c1ccc(-c3nc(C(F)(F)F)cn3C)cc1)C2` (centres unmarked) [Compound 56, 3-(3,5-dimethyl-7-{4-[1-methyl-4-(trifluoromethyl)-1H-imidazol-2-yl]phenyl}-5H,6H,7H,8H-imidazo[1,5-a]pyrazin-1-yl)-2-(propan-2-yl)pyridine] it was no more than 1 µM; in that of `Cc1nc(-c2cccnc2C(C)C)c2n1CCN(c1ccc(C(=O)NCC3CC3)cc1)C2` [Compound 57, N-(cyclopropylmethyl)-4-{3-methyl-1-[2-(propan-2-yl)pyridin-3-yl]-5H,6H,7H,8H-imidazo[1,5-a]pyrazin-7-yl}benzamide], greater than 25 µM. In the case of `Cc1nc(-c2cccnc2C(C)C)c2n1CCN(c1ccc(C(=O)N(C)CC(F)(F)F)cc1)C2` [Compound 58, N-methyl-4-{3-methyl-1-[2-(propan-2-yl)pyridin-3-yl]-5H,6H,7H,8H-imidazo[1,5-a]pyrazin-7-yl}-N-(2,2,2-trifluoroethyl)benzamide] it was 1 to 10 µM. In the case of `Cc1nc(-c2cccnc2C(C)C)c2n1CCN(c1ccc(NC(=O)C3CC3)cc1)C2` [Compound 59, N-(4-{3-methyl-1-[2-(propan-2-yl)pyridin-3-yl]-5H,6H,7H,8H-imidazo[1,5-a]pyrazin-7-yl}phenyl)cyclopropanecarboxamide] it was 1 to 10 µM; in that of `Cc1nc(-c2cccnc2C(C)C)c2n1CCN(c1cccc(C(=O)N(C)C3CC3)c1)C2` [Compound 60, N-cyclopropyl-N-methyl-3-{3-methyl-1-[2-(propan-2-yl)pyridin-3-yl]-5H,6H,7H,8H-imidazo[1,5-a]pyrazin-7-yl}benzamide], greater than 25 µM. Regarding `Cc1nc(-c2cccnc2C(C)C)c2n1CCN(c1cccc(C(=O)N3CCC[C@H]3C)c1)C2` [Compound 61, 3-(3-methyl-7-{3-[(2R)-2-methylpyrrolidine-1-carbonyl]phenyl}-5H,6H,7H,8H-imidazo[1,5-a]pyrazin-1-yl)-2-(propan-2-yl)pyridine], the IC50 was greater than 25 µM.

The term IC50 denotes the concentration that inhibits the measured activity by half.
